The record followed here is patent US9549558B2, “Herbicidal azines” (BASF SE, priority 2012, dated 2017).

Common to all, as to type: in vivo
The subject of experiment [1] is GERDI (Geranium dissectum). As to the kind of experiment: greenhouse post-emergence herbicidal test. The text has this: (§1) The culture containers used were plastic flowerpots containing loamy sand with approximately 3.0% of humus as the substrate. The seeds of the test plants were sown separately for each species.
(§2) For the post-emergence treatment, the test plants were first grown to a height of 3 to 15 cm, depending on the plant habit, and only then treated with the active ingredients which had been suspended or emulsified in water. For this purpose, the test plants were either sown directly and grown in the same containers, or they were first grown separately as seedlings and transplanted into the test containers a few days prior to treatment.
(§3) Depending on the species, the plants were kept at 10-25° C. or 20-35° C., respectively.
(§4) The test period extended over 2 to 4 weeks. During this time, the plants were tended, and their response to the individual treatments was evaluated.
(§5) Evaluation was carried out using a scale from 0 to 100. 100 means no emergence of the plants, or complete destruction of at least the aerial moieties, and 0 means no damage, or normal course of growth. A moderate herbicidal activity is given at values of at least 60, a good herbicidal activity is given at values of at least 70, and a very good herbicidal activity is given at values of at least 85.
(§6) The plants used in the greenhouse experiments were of the following species: […]

Experiment [2] concerns ABUTH (Abutilon theophrasti). As to the kind of experiment: greenhouse post-emergence herbicidal test.
Source text: as §1, §2, §3, §4, §5, §6

The subject of experiment [3] is CHEAL (Chenopodium album). As to the kind of experiment: greenhouse post-emergence herbicidal test.
Source text: as §1, §2, §3, §4, §5, §6

In experiment [4] the test system is POLCO (Polygonum convolvulus). The experiment is described as follows: greenhouse post-emergence herbicidal test.
Source text: as §1, §2, §3, §4, §5, §6

The test system of experiment [5] is AMARE (Amaranthus retroflexus). The experiment is described as follows: greenhouse post-emergence herbicidal test.
Source text: as §1, §2, §3, §4, §5, §6

Experiment [6] relates to ECHCG (Echinocloa crus-galli). The experiment is described as follows: greenhouse post-emergence herbicidal test.
Source text: as §1, §2, §3, §4, §5, §6

In experiment [7] the test system is STEME (Stellaria media). The experiment is described as follows: greenhouse pre-emergence herbicidal test. Summed up: (§7)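 Compounds suspended or emulsified in water were sprayed right after sowing into loamy sand (~3.0% humus). Pots were kept at 10-25 °C or 20-35 °C depending on species for 2 to 4 weeks. Damage was scored 0-100 (100 = no emergence or complete destruction).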

The subject of another experiment is SETVI (Setaria viridis). As to the kind of experiment: greenhouse pre-emergence herbicidal test. Summed up: as §7
The subject of experiment [8] is ECHCG (Echinocloa crus-galli). The experiment is described as follows: greenhouse pre-emergence herbicidal test. The settings on record: 125 g/ha. Summed up:
as §7

The test system of experiment [9] is CAPBP (Capsella bursa-pastoris). As to the kind of experiment: greenhouse pre-emergence herbicidal test. Conditions: CAPBP. Summed up:
as §7

In experiment [10] the test system is STEME (Stellaria media). As to the kind of experiment: greenhouse post-emergence herbicidal test. Conditions: 0.125 kg/ha.
Source text: as §1, §2, §3, §4, §5, §6

As for `CC(F)(F)c1nc(N)nc(Nc2c(F)c(F)c(F)c(F)c2F)n1` [Example 9], the herbicidal activity result in [1] (0.062 kg/ha) and in [2] (0.062 kg/ha) was “very good (a very good herbicidal activity is given at values of at least 85)” throughout.
Take `CCC(F)(CC)c1nc(N)nc(Nc2c(F)c(F)c(F)c(F)c2F)n1` [Example 49]: the herbicidal activity entry in experiment [1] (0.125 kg/ha) and in [3] (0.125 kg/ha) was “very good (a very good herbicidal activity is given at values of at least 85)” in each case.
As for `Nc1nc(Nc2c(F)ccc(F)c2F)nc(C(F)(F)F)n1` [Example 127], the herbicidal activity result in experiment [3] (1000 g/ha) was “very good (a very good herbicidal activity is given at values of at least 85)”; in [4] (1000 g/ha), “good (a good herbicidal activity is given at values of at least 70)”; in experiment [5] (1000 g/ha), “very good (a very good herbicidal activity is given at values of at least 85)”.
Turning to `Nc1nc(Nc2ccc(Br)cc2F)nc(C(F)F)n1` [Example 157], the herbicidal activity entry in experiment [2] (500 g/ha) and in [6] (500 g/ha) was “very good (a very good herbicidal activity is given at values of at least 85)” each time.
For the compound `Nc1nc(Nc2c(F)cc(F)cc2F)nc(C2CC2)n1` [Example 143], the figures for the herbicidal activity result in experiment [3] (500 g/ha), in experiment [4] (500 g/ha) and in experiment [5] (500 g/ha) were “very good (a very good herbicidal activity is given at values of at least 85)”, “good (a good herbicidal activity is given at values of at least 70)” and “very good (a very good herbicidal activity is given at values of at least 85)”, respectively.
For the compound `CC(c1nc(N)nc(Nc2c(F)c(F)c(F)c(F)c2F)n1)C1CC1` (centres unmarked) [Example 63], the herbicidal activity result (in the experiment with STEME (Stellaria media) [7] (125 g/ha); in the experiment with SETVI (Setaria viridis) (125 g/ha); in experiment [8]) was “very good (a very good herbicidal activity is given at values of at least 85)” in each case.
`CCC(C)c1nc(N)nc(Nc2c(F)c(F)c(F)c(F)c2F)n1` (centres unmarked) [Example 62]: the herbicidal activity result (with STEME (Stellaria media) [7] (125 g/ha); in experiment [9] (125 g/ha); with SETVI (Setaria viridis) (125 g/ha)) was “very good (a very good herbicidal activity is given at values of at least 85)” throughout.
Take `CC(C)(F)c1nc(N)nc(Nc2ccc(C(=O)O)cc2F)n1` [Example 173]: in experiment [6] (500 g/ha), the herbicidal activity entry is listed as “good (a good herbicidal activity is given at values of at least 70)”.
`CC(C)(F)c1nc(N)nc(Nc2c(F)c(F)cc(F)c2F)n1` [Example 2, 6-(1-Fluoro-1-methyl-ethyl)-N4-(2,3,5,6-tetrafluorophenyl)-1,3,5-triazine-2,4-diamine]: the herbicidal activity result in [3] (0.125 kg/ha) and in experiment [6] (0.125 kg/ha) was “very good (a very good herbicidal activity is given at values of at least 85)” throughout.
As for `Nc1nc(Nc2c(F)c(F)c(F)c(F)c2F)nc(C2CCC2)n1` [Example 57], the herbicidal activity result in [5] (0.062 kg/ha) and in experiment [6] (0.062 kg/ha) was “very good (a very good herbicidal activity is given at values of at least 85)” in each case.
As for `CC(C)c1nc(N)nc(Nc2c(F)c(F)c(F)c(F)c2F)n1` [Example 7], the herbicidal activity result in experiment [1] (0.125 kg/ha) and in experiment [2] (0.125 kg/ha) was “very good (a very good herbicidal activity is given at values of at least 85)” each time.
For the compound `CCC(C)(F)c1nc(N)nc(Nc2c(F)c(F)c(F)c(F)c2F)n1` (centres unmarked) [Example 48], the herbicidal activity entry (in the experiment with STEME (Stellaria media) [10]; in experiment [5] (0.125 kg/ha)) was “very good (a very good herbicidal activity is given at values of at least 85)” in each case.
For `CC(C)(Cl)c1nc(N)nc(Nc2c(F)c(F)cc(F)c2F)n1` [Example 111], the herbicidal activity entry (in [9] (125 g/ha); in the experiment on SETVI (Setaria viridis) (125 g/ha); in experiment [8]) was “very good (a very good herbicidal activity is given at values of at least 85)” throughout.
With `CC(F)c1nc(N)nc(Nc2c(F)cc(F)cc2F)n1` (centres unmarked) [Example 15], the herbicidal activity entry in the experiment with SETVI (Setaria viridis) (0.0625 kg/ha) is on record as “moderate (A moderate herbicidal activity is given at values of at least 60)”.
Take `CC(C)(F)c1nc(N)nc(Nc2c(F)ccc(F)c2F)n1` [Example 27]: the herbicidal activity result in experiment [5] (0.062 kg/ha) and in experiment [6] (0.062 kg/ha) was “very good (a very good herbicidal activity is given at values of at least 85)” each time.
With `CC(C)(F)c1nc(N)nc(Nc2c(F)c(F)cc(-c3ccccc3)c2F)n1` [Example 192], the herbicidal activity result in experiment [2] (1000 g/ha), in [5] (1000 g/ha) and in experiment [6] (1000 g/ha) was “very good (a very good herbicidal activity is given at values of at least 85)” each time.
For `Nc1nc(CCC(F)(F)F)nc(Nc2c(F)c(F)c(F)c(F)c2F)n1` [Example 73], the herbicidal activity entry (with STEME (Stellaria media) [7] (250 g/ha); in experiment [9] (250 g/ha); in the experiment on SETVI (Setaria viridis) (250 g/ha)) was “very good (a very good herbicidal activity is given at values of at least 85)” throughout.
For the compound `Nc1nc(Nc2c(F)c(F)cc(F)c2F)nc(C(F)(F)F)n1` [Example 132], the herbicidal activity entry in experiment [3] (500 g/ha), in experiment [4] (500 g/ha) and in [5] (500 g/ha) was “very good (a very good herbicidal activity is given at values of at least 85)” in each case.
For the compound `CCC(C)(F)c1nc(NC(C)=O)nc(Nc2c(F)c(F)cc(F)c2F)n1` (centres unmarked) [Example 207], the herbicidal activity result (in the experiment on STEME (Stellaria media) [7] (125 g/ha); in [9] (125 g/ha); in the experiment on SETVI (Setaria viridis) (125 g/ha)) was “very good (a very good herbicidal activity is given at values of at least 85)” in each case.
On to `CC(C)(F)c1nc(N)nc(Nc2c(F)ccc(Cl)c2F)n1` [Example 32], for which the herbicidal activity entry in experiment [1] (0.062 kg/ha) and in [4] (0.062 kg/ha) was “very good (a very good herbicidal activity is given at values of at least 85)” throughout.
As for `CC(C)(F)c1nc(N)nc(Nc2c(F)cc(C#N)cc2F)n1` [Example 71], the herbicidal activity result in experiment [3] (125 g/ha) is given as “very good (a very good herbicidal activity is given at values of at least 85)”; in [4] (125 g/ha) it was “good (a good herbicidal activity is given at values of at least 70)”.
Turning to `Nc1nc(Nc2c(F)c(F)c(F)c(F)c2F)nc(C(F)(F)Cl)n1` [Example 146], the herbicidal activity entry in experiment [3] (500 g/ha), in [4] (500 g/ha) and in experiment [5] (500 g/ha) was “very good (a very good herbicidal activity is given at values of at least 85)” each time.
Consider `CC(C)(Cl)c1nc(N)nc(Nc2c(F)c(F)c(F)c(F)c2F)n1` [Example 1, 6-(1-chloro-1-methyl-ethyl)-N4-(2,3,4,5,6-pentafluorophenyl)-1,3,5-triazine-2,4-diamine], for which the herbicidal activity entry (with STEME (Stellaria media) [10]; in [5] (0.125 kg/ha)) was “very good (a very good herbicidal activity is given at values of at least 85)” each time.
Consider `CC(C)(C)c1nc(N)nc(Nc2c(F)c(F)c(F)c(F)c2F)n1` [Example 52], for which the herbicidal activity result in experiment [1] (0.062 kg/ha) and in experiment [2] (0.062 kg/ha) was “very good (a very good herbicidal activity is given at values of at least 85)” throughout.
